According to US20080318977A1, “Condensed Pyridines as Kinase Inhibitors” (Palau Pharma, S.A., priority 2004, published 2008):

Target: T1, p38α (Homo sapiens, UniProt Q16539)
T1 construct: GST-tagged fusion protein corresponding to full-length human p38α; purchased Upstate 14-251; host or cells: E. coli
Experiment: Inhibition of p38α enzyme activity (IMAP fluorescence polarisation kinase assay)
Assay type: biochemical
Conditions: at 1 μM compound; ATP 20 μM; 2 h at RT
Protocol: Inhibition of p38α Enzyme Activity:
Compound stocks in 100% DMSO are first diluted in DMSO to a concentration of 1×10^−3 up to 3.2×10^−8 M and then further diluted in kinase assay buffer (10 mM Tris-HCl, pH 7.2, 10 mM MgCl2, 0.01% tween 20, 0.05% NaN3, 1 mM dithiothreitol) to a concentration range of 4×10^−5 up to 1.3×10^−9 M. Of each compound solution 5 μL is transferred into a 384-wells black Optiplate (Packard, 6007279), followed by the addition of 5 μL of ATP (Boehringer, 519987), 5 μL of Fluorescein-labeled EGFR (Epidermal Growth Factor Receptor) peptide substrate and 5 μL of active p38 cc kinase (GST-tagged fusion protein corresponding to full-length human p38α; expressed in E. coli by Upstate, 14-251), all diluted in kinase assay buffer (see final concentrations in Table 1). The mixture is incubated for 2 h at room temperature (RT). The reaction is stopped by the addition of 60 μL of IMAP binding reagent, which has been diluted 400-fold in IMAP binding buffer (stock concentration 5 times diluted in Milli Q). After incubation for 30 min at RT, FP is measured on an Analyst™ multimode fluorescence plate reader (Molecular Devices) at excitation wavelength of 485 nm and emission wavelength of 530 nm (1 sec/well).
Data handling is performed as follows: percentage effects are calculated based on no-p38-enzyme-addition as the maximum inhibitory effect and with p38 enzyme addition as the minimum inhibitory effect. In each experiment, individual compound concentrations are tested in duplicate and percentage effect is calculated for each concentration.

T1 sequence (Q16539 whole entry, the tested form may be a part): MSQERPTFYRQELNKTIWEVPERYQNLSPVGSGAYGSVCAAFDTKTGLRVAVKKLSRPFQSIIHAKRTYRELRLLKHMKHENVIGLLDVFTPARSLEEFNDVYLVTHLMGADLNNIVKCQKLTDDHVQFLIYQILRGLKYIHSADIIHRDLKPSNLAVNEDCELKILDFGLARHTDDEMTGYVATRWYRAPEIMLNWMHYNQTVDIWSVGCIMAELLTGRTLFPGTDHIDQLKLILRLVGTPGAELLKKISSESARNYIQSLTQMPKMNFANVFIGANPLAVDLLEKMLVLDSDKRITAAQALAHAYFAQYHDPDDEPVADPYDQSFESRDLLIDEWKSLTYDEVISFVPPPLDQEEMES

Inhibition at 1 µM, > 50%:
COc1ccc(-c2nc3cc[nH]c3cc2-c2ccnc(NCC3CC3)n2)cc1 [Example 46, Cyclopropylmethyl-{4-[5-(4-methoxy-phenyl)-1H-pyrrolo[3,2-b]pyridin-6-yl]-pyrimidin-2-yl}-amine]
COc1ccc(-c2nc3cc[nH]c3cc2-c2ccnc(N[C@@H](C)c3ccccc3)n2)cc1 [Example 47, (S)-{4-[5-(4-Methoxy-phenyl)-1H-pyrrolo[3,2-b]pyridin-6-yl]-pyrimidin-2-yl}-(1-phenyl-ethyl)-amine]
COC(=O)CNCc1cc2nc(-c3ccc(F)cc3)c(-c3ccncc3)c(-c3ccc(F)cc3)c2n1C [Example 34, {[5,7-Bis-(4-fluoro-phenyl)-1-methyl-6-pyridin-4-yl-1H-pyrrolo[3,2-b]pyridin-2-ylmethyl]-amino}-acetic acid methyl ester]
COCCCNc1nccc(-c2cc3c(C)nsc3nc2-c2ccc(F)cc2)n1 [Example 44, {4-[6-(4-Fluoro-phenyl)-3-methyl-isothiazolo[5,4-b]pyridin-5-yl]-pyrimidin-2-yl}-(3-methoxy-propyl)-amine]
OCc1cc2c(-c3ccc(F)cc3)c(-c3ccncc3)c(-c3ccc(F)cc3)nc2o1 [Example 22, [4,6-Bis(4-fluorophenyl)-5-(4-pyridyl)furo[2,3-b]pyridin-2-yl]methanol]
Cn1c(C(=O)NCCN2CCOCC2)cc2nc(-c3ccc(F)cc3)c(-c3ccncc3)c(-c3ccc(F)cc3)c21 [Example 30, 5,7-Bis-(4-fluoro-phenyl)-1-methyl-6-pyridin-4-yl-1H-pyrrolo[3,2-b]pyridine-2-carboxylic acid (2-morpholin-4-yl-ethyl)-amide]
Cn1c(C(=O)N2CCOCC2)cc2nc(-c3ccc(F)cc3)c(-c3ccncc3)c(-c3ccc(F)cc3)c21 [Example 14, [5,7-Bis(4-fluorophenyl)-1-methyl-6-(4-pyridyl)pyrrolo[3,2-b]pyridin-2-yl]morpholin-4-ylmethanone]
Cc1nc2cc(-c3ccnc(NCC4CC4)n3)c(-c3ccc(F)cc3)nc2s1 [Example 52, Cyclopropylmethyl-{4-[5-(4-fluoro-phenyl)-2-methyl-thiazolo[5,4-b]pyridin-6-yl]-pyrimidin-2-yl}-amine]
COCCCNc1nccc(-c2cc3c(C)noc3nc2-c2ccc(F)cc2)n1 [Example 41, {4-[6-(4-Fluoro-phenyl)-3-methyl-isoxazolo[5,4-b]pyridin-5-yl]-pyrimidin-2-yl}-(3-methoxy-propyl)-amine]
O=C(NCCN1CCOCC1)c1cc2c(-c3ccc(F)cc3)c(-c3ccncc3)c(-c3ccc(F)cc3)nc2o1 [Example 25, 4,6-Bis-(4-fluoro-phenyl)-5-pyridin-4-yl-furo[2,3-b]pyridine-2-carboxylic acid (2-morpholin-4-yl-ethyl)-amide]
Cn1c(C(C)(C)O)cc2nc(-c3ccc(F)cc3)c(-c3ccncc3)c(-c3ccc(F)cc3)c21 [Example 20, 2-[5,7-Bis(4-fluorophenyl)-1-methyl-6-(4-pyridyl)pyrrolo[3,2-b]pyridin-2-yl]propan-2-ol]
Cn1c(CNCC2CC2)cc2nc(-c3ccc(F)cc3)c(-c3ccncc3)c(-c3ccc(F)cc3)c21 [Example 33, [5,7-Bis-(4-fluoro-phenyl)-1-methyl-6-pyridin-4-yl-1H-pyrrolo[3,2-b]pyridin-2-ylmethyl]-cyclopropylmethyl-amine]
Cn1c(C(N)=O)cc2nc(-c3ccc(F)cc3)c(-c3ccncc3)c(-c3ccc(F)cc3)c21 [Example 12, 5,7-Bis(4-fluorophenyl)-1-methyl-6-(4-pyridyl)pyrrolo[3,2-b]pyridine-2-carboxamide]
COCCNC(=O)c1cc2nc(-c3ccc(F)cc3)c(-c3ccncc3)c(-c3ccc(F)cc3)c2n1C [Example 28, 5,7-Bis-(4-fluoro-phenyl)-1-methyl-6-pyridin-4-yl-1H-pyrrolo[3,2-b]pyridine-2-carboxylic acid (2-methoxy-ethyl)-amide]
CC(=O)c1nc2nc(-c3ccc(F)cc3)c(-c3ccncc3)c(-c3ccc(F)cc3)c2n1C [Example 19, 1-[5,7-Bis(4-fluorophenyl)-1-methyl-6-(4-pyridyl)imidazo[4,5-b]pyridin-2-yl]ethanone]
CC(C)(O)c1cc2c(-c3ccc(F)cc3)c(-c3ccncc3)c(-c3ccc(F)cc3)nc2o1 [Example 16, 2-[4,6-Bis-(4-fluorophenyl)-5-(4-pyridyl)furo[2,3-b]pyridin-2-yl]propan-2-ol]
Cn1c(C(C)(C)O)nc2nc(-c3ccc(F)cc3)c(-c3ccncc3)c(-c3ccc(F)cc3)c21 [Example 18, 2-[5,7-Bis(4-fluorophenyl)-1-methyl-6-(4-pyridyl)imidazo[4,5-b]pyridin-2-yl]propan-2-ol]
Fc1ccc(-c2nc3cn[nH]c3c(-c3ccc(F)cc3)c2-c2ccncc2)cc1 [Example 53, 5,7-Bis-(4-fluoro-phenyl)-6-pyridin-4-yl-1H-pyrazolo[4,3-b]pyridine]
Cn1c(C(=O)NCCO)cc2nc(-c3ccc(F)cc3)c(-c3ccncc3)c(-c3ccc(F)cc3)c21 [Example 13, 5,7-Bis(4-fluorophenyl)-N-(2-hydroxyethyl)-1-methyl-6-(4-pyridyl)pyrrolo[3,2-b]pyridine-2-carboxamide]
O=C(NCCN1CCCCC1)c1cc2c(-c3ccc(F)cc3)c(-c3ccncc3)c(-c3ccc(F)cc3)nc2o1 [Example 26, 4,6-Bis-(4-fluoro-phenyl)-5-pyridin-4-yl-furo[2,3-b]pyridine-2-carboxylic acid (2-piperidin-1-yl-ethyl)-amide]
Cn1ccc2nc(-c3ccc(F)cc3)c(-c3ccncc3)c(-c3ccc(F)cc3)c21 [Example 37, 5,7-Bis-(4-fluoro-phenyl)-1-methyl-6-pyridin-4-yl-1H-pyrrolo[3,2-b]pyridine]
Cn1cnc2nc(-c3ccc(F)cc3)c(-c3ccncc3)c(-c3ccc(F)cc3)c21 [Example 10, 5,7-Bis(4-fluorophenyl)-1-methyl-6-(4-pyridyl)imidazo[4,5-b]pyridine]
Cc1noc2nc(-c3ccc(F)cc3)c(-c3ccnc(N[C@@H](C)c4ccccc4)n3)cc12 [Example 42, (S)-{4-[6-(4-Fluoro-phenyl)-3-methyl-isoxazolo[5,4-b]pyridin-5-yl]-pyrimidin-2-yl}-(1-phenyl-ethyl)-amine]
Cc1noc2nc(-c3ccc(F)cc3)c(-c3ccnc(NCC4CC4)n3)cc12 [Example 40, Cyclopropylmethyl-{4-[6-(4-fluoro-phenyl)-3-methyl-isoxazolo[5,4-b]pyridin-5-yl]-pyrimidin-2-yl}-amine]
COCCNCc1cc2nc(-c3ccc(F)cc3)c(-c3ccncc3)c(-c3ccc(F)cc3)c2n1C [Example 32, [5,7-Bis-(4-fluoro-phenyl)-1-methyl-6-pyridin-4-yl-1H-pyrrolo[3,2-b]pyridin-2-ylmethyl]-(2-methoxy-ethyl)-amine]
Cn1c(C(=O)NCCN2CCCCC2)cc2nc(-c3ccc(F)cc3)c(-c3ccncc3)c(-c3ccc(F)cc3)c21 [Example 31, 5,7-Bis-(4-fluoro-phenyl)-1-methyl-6-pyridin-4-yl-1H-pyrrolo[3,2-b]pyridine-2-carboxylic acid (2-piperidin-1-yl-ethyl)-amide]
COC(=O)c1cc2c(-c3ccc(F)cc3)c(-c3ccncc3)c(-c3ccc(F)cc3)nc2o1 [Example 2, Methyl 4,6-bis(4-fluorophenyl)-5-(4-pyridyl)furo[2,3-b]pyridine-2-carboxylate]
Cc1nsc2nc(-c3ccc(F)cc3)c(-c3ccnc(NCC4CC4)n3)cc12 [Example 43, Cyclopropylmethyl-{4-[6-(4-fluoro-phenyl)-3-methyl-isothiazolo[5,4-b]pyridin-5-yl]-pyrimidin-2-yl}-amine]
CCCNC(=O)c1cc2nc(-c3ccc(F)cc3)c(-c3ccncc3)c(-c3ccc(F)cc3)c2n1C [Example 29, 5,7-Bis-(4-fluoro-phenyl)-1-methyl-6-pyridin-4-yl-1H-pyrrolo[3,2-b]pyridine-2-carboxylic acid propylamide]
COC(=O)c1cc2nc(-c3ccc(F)cc3)c(-c3ccncc3)c(-c3ccc(F)cc3)c2n1C [Example 3, Methyl 5,7-bis(4-fluorophenyl)-1-methyl-6-(4-pyridyl)pyrrolo[3,2-b]pyridine-2-carboxylate]
CCOC(=O)c1nc2nc(-c3ccc(F)cc3)c(-c3ccncc3)c(-c3ccc(F)cc3)c2n1C [Example 5, Ethyl 5,7-bis(4-fluorophenyl)-1-methyl-6-(4-pyridyl)imidazo[4,5-b]pyridine-2-carboxylate]
